According to PubChem BioAssay AID1918998 (Molecular Pharmacology Branch, DTP, NCI, 2023):
pIC50: −log10 of the molar value.

Tested on: 521955-158-R2-J5-PDC complex spheroid growth
Experiment: Anticancer human tumor 521955-158-R2-J5-PDC patient-derived pancreatic carcinoma cell line growth inhibition [AhR]
Conditions: for pIC50: curve of first compound; for viability, T/C: stronger effect = lower value
Summary of the method: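 Agents were dosed in half-log steps down from roughly clinical Cmax, or from 10 microM where Cmax was unknown, alone and with AhR antagonists. Read-out: percent test/control growth of tumor spheroids containing HUVEC and MSC stromal cells.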

[1] = second compound 0.1 µM, first compound 0.0316 µM
[2] = second compound 0.1 µM, first compound 0.1 µM
[3] = second compound 0.1 µM, first compound 0.316 µM
[4] = second compound 0.1 µM, first compound 1 µM
[5] = second compound 0.1 µM, first compound 3.16 µM
[6] = second compound 0.1 µM, first compound 10 µM
[7] = second compound 0.316 µM, first compound 0.0316 µM
[8] = second compound 0.316 µM, first compound 0.1 µM
[9] = second compound 0.316 µM, first compound 0.316 µM
[10] = second compound 0.316 µM, first compound 1 µM
[11] = second compound 0.316 µM, first compound 3.16 µM
[12] = second compound 0.316 µM, first compound 10 µM
[13] = second compound 1 µM, first compound 0.0316 µM
[14] = second compound 1 µM, first compound 0.1 µM
[15] = second compound 1 µM, first compound 0.316 µM
[16] = second compound 1 µM, first compound 1 µM
[17] = second compound 1 µM, first compound 3.16 µM
[18] = second compound 1 µM, first compound 10 µM
[19] = second compound 3.16 µM, first compound 0.0316 µM
[20] = second compound 3.16 µM, first compound 0.1 µM
[21] = second compound 3.16 µM, first compound 0.316 µM
[22] = second compound 3.16 µM, first compound 1 µM
[23] = second compound 3.16 µM, first compound 3.16 µM
[24] = second compound 3.16 µM, first compound 10 µM
[25] = second compound 10 µM, first compound 0.0316 µM
[26] = second compound 10 µM, first compound 0.1 µM
[27] = second compound 10 µM, first compound 0.316 µM
[28] = second compound 10 µM, first compound 1 µM
[29] = second compound 10 µM, first compound 3.16 µM
[30] = second compound 10 µM, first compound 10 µM
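Wherever viability, T/C is given: spheroids mix tumor cells with HUVEC endothelium and human MSC stroma; luminescence taken as viability surrogate after a week of drug exposure.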

SMILES | pIC50 (second compound 0.1 µM) | pIC50 (second compound 0.316 µM) | pIC50 (second compound 1 µM) | pIC50 (second compound 3.16 µM) | pIC50 (second compound 10 µM) | viability, T/C [1] | viability, T/C [2] | viability, T/C [3] | viability, T/C [4] | viability, T/C [7] | viability, T/C [8] | viability, T/C [9] | viability, T/C [10] | viability, T/C [13] | viability, T/C [14] | viability, T/C [15] | viability, T/C [16] | viability, T/C [19] | viability, T/C [20] | viability, T/C [21] | further results
CC(C)c1c(-c2ccccc2)nc2c(C#N)c[nH]n2c1=O + Cc1cncc(-c2nc(NCCc3c[nH]c4ccccc34)c3ncn(C(C)C)c3n2)c1 | < 5.00 | < 5.00 | < 5.00 | < 5.00 | < 5.00 | 96.9% | 112% | 114% | 101% | 101% | 137% | 98.9% | 106% | 133% | 142% | 127% | 112% | 169% | 151% | 146% | viability, T/C [5]: 98.7%; viability, T/C [6]: 94.6%; viability, T/C [11]: 95.7%; viability, T/C [12]: 94.6%; viability, T/C [17]: 106%; viability, T/C [18]: 105%; viability, T/C [22]: 134%; viability, T/C [23]: 131%; viability, T/C [24]: 136%; viability, T/C [25]: 134%; viability, T/C [26]: 147%; viability, T/C [27]: 153%; viability, T/C [28]: 143%; viability, T/C [29]: 118%; viability, T/C [30]: 124%
CC1COCCN1c1cc(-c2ccnn2C)c2ccnc(-c3ccn[nH]3)c2n1 (stereo not given) + Cc1cncc(-c2nc(NCCc3c[nH]c4ccccc34)c3ncn(C(C)C)c3n2)c1 | 6.94 | 6.87 | 7.06 | 6.88 | 7.05 | 106% | 55.6% | 12.8% | 16.2% | 117% | 63.3% | 12.4% | 12.7% | 121% | 41.6% | 15.7% | 13.1% | 145% | 61.1% | 13.6% | viability, T/C (second compound 0.1 µM, first compound 0.00316 µM): 112%; viability, T/C (second compound 0.1 µM, first compound 0.01 µM): 109%; viability, T/C (second compound 0.316 µM, first compound 0.00316 µM): 113%; viability, T/C (second compound 0.316 µM, first compound 0.01 µM): 130%; viability, T/C (second compound 1 µM, first compound 0.00316 µM): 94.7%; viability, T/C (second compound 1 µM, first compound 0.01 µM): 123%; viability, T/C (second compound 3.16 µM, first compound 0.00316 µM): 176%; viability, T/C (second compound 3.16 µM, first compound 0.01 µM): 167%; viability, T/C [22]: 19.1%; viability, T/C (second compound 10 µM, first compound 0.00316 µM): 127%; viability, T/C (second compound 10 µM, first compound 0.01 µM): 134%; viability, T/C [25]: 105%; viability, T/C [26]: 45.2%; viability, T/C [27]: 8.85%; viability, T/C [28]: 12.9%
COc1ccc([C@@H](O)c2cc(-c3ncnc4cc(N5CCOCC5)ccc34)c(F)cc2Cl)nn1 + Cc1cncc(-c2nc(NCCc3c[nH]c4ccccc34)c3ncn(C(C)C)c3n2)c1 | < 5.00 | < 5.00 | < 5.00 | < 5.00 | < 5.00 | 102% | 102% | 99.7% | 78.1% | 118% | 116% | 113% | 85.1% | 115% | 127% | 113% | 104% | 134% | 153% | 130% | viability, T/C [5]: 65.8%; viability, T/C [6]: 50.8%; viability, T/C [11]: 75.1%; viability, T/C [12]: 54.4%; viability, T/C [17]: 83.3%; viability, T/C [18]: 61.6%; viability, T/C [22]: 111%; viability, T/C [23]: 96.3%; viability, T/C [24]: 65.9%; viability, T/C [25]: 138%; viability, T/C [26]: 131%; viability, T/C [27]: 175%; viability, T/C [28]: 114%; viability, T/C [29]: 62.9%; viability, T/C [30]: 46.6%
